Data as given in patent US7271165B2, “Rifamycin analogs and uses thereof” (priority 2003, dated 2007).
In brackets after ≈: the same amount, converted by molar mass. Where two headings read alike, the source gives them in different places.

What was measured:
S. aureus = assay: MIC assay, S. aureus; format: cell-based, Staphylococcus aureus
S. pneumo. = assay: MIC assay, S. pneumo.; format: cell-based, Streptococcus pneumoniae
E. faecalis = assay: MIC assay, E. faecalis; format: cell-based, Enterococcus faecalis
H. flu = format: cell-based, H. influenza
E coli = assay: MIC assay, E coli; format: cell-based

**Q.** For `COc1c(N2CCCC2)cc(C)c2nc3c4c5c6c(C)c(O)c4c(=O)c(c-3oc12)NC(=O)C(C)=CC=CC(C)C(O)C(C)C(O)C(C)C(O)C(C)C(OC)C=COC(C)(O6)C5=O` (centres unmarked) [Compound 118], which “MIC (μg/mL) S. aureus” value (S. aureus) is on record?
**A.** 0.06 µg/mL (≈ 0.0701 µM)

**Q.** What about the “MIC (μg/mL) S. pneumo.” value (S. pneumo.) of the same molecule?
**A.** 0.03 µg/mL (≈ 0.035 µM)

**Q.** And the “MIC (μg/mL) E. faecalis” value (E. faecalis)?
**A.** 2 µg/mL (≈ 2.34 µM)

**Q.** And the “MIC (μg/mL) H. flu” value (H. flu; H. flu)?
**A.** 0.12 µg/mL (≈ 0.14 µM)

**Q.** And the “MIC (μg/mL) E coli” value (E coli)?
**A.** 8 µg/mL (≈ 9.35 µM)

**Q.** Which “MIC (μg/mL) S. aureus” value (S. aureus) does the source give for `COC1C=COC2(C)Oc3c(C)c(O)c4c(=O)c(c5oc6cc(N7CCC(F)C7)ccc6nc-5c4c3C2=O)NC(=O)C(C)=CC=CC(C)C(O)C(C)C(O)C(C)C(O)C1C` (centres unmarked) [Compound 119] here?
**A.** 0.03 µg/mL (≈ 0.0361 µM)

**Q.** And the “MIC (μg/mL) S. pneumo.” value (S. pneumo.)?
**A.** 0.015 µg/mL (≈ 0.0181 µM)

**Q.** And the “MIC (μg/mL) E. faecalis” value (E. faecalis)?
**A.** 0.5 µg/mL (≈ 0.602 µM)

**Q.** And the “MIC (μg/mL) H. flu” value (H. flu; H. flu)?
**A.** 0.06 µg/mL (≈ 0.0723 µM)

**Q.** And the “MIC (μg/mL) E coli” value (E coli)?
**A.** 4 µg/mL (≈ 4.82 µM)

**Q.** `COC1C=COC2(C)Oc3c(C)c(O)c4c(=O)c(c5oc6cc(N7CCCC7)c(F)cc6nc-5c4c3C2=O)NC(=O)C(C)=CC=CC(C)C(O)C(C)C(O)C(C)C(O)C1C` (centres unmarked) [Compound 120] was tested. Which “MIC (μg/mL) S. aureus” value (S. aureus) did it give?
**A.** 0.03 µg/mL (≈ 0.0361 µM)

**Q.** What about the “MIC (μg/mL) S. pneumo.” value (S. pneumo.) of the same molecule?
**A.** 0.06 µg/mL (≈ 0.0723 µM)

**Q.** What about the “MIC (μg/mL) E. faecalis” value (E. faecalis) of the same molecule?
**A.** 1 µg/mL (≈ 1.2 µM)

**Q.** And the “MIC (μg/mL) H. flu” value (H. flu; H. flu)?
**A.** 0.12 µg/mL (≈ 0.145 µM)

**Q.** And the “MIC (μg/mL) E coli” value (E coli)?
**A.** 8 µg/mL (≈ 9.64 µM)

**Q.** With `COC1C=COC2(C)Oc3c(C)c(O)c4c(=O)c(c5oc6cc(N7CCCN(C)CC7)cc(O)c6nc-5c4c3C2=O)NC(=O)C(C)=CC=CC(C)C(O)C(C)C(O)C(C)C(O)C1C` (centres unmarked) [Compound 121] as the molecule, how does the “MIC (μg/mL) S. aureus” value (S. aureus) read?
**A.** 0.004 µg/mL (≈ 0.00459 µM)

**Q.** What about the “MIC (μg/mL) S. pneumo.” value (S. pneumo.) of the same molecule?
**A.** 0.00012 µg/mL (≈ 0.000138 µM)

**Q.** What about the “MIC (μg/mL) E. faecalis” value (E. faecalis) of the same molecule?
**A.** 0.03 µg/mL (≈ 0.0344 µM)

**Q.** What about the “MIC (μg/mL) H. flu” value (H. flu; H. flu) of the same molecule?
**A.** 0.25 µg/mL (≈ 0.287 µM)

**Q.** And the “MIC (μg/mL) E coli” value (E coli)?
**A.** 4 µg/mL (≈ 4.59 µM)

**Q.** `COC1C=COC2(C)Oc3c(C)c(O)c4c(=O)c(c5sc6cc(N7CCCN(C)CC7)ccc6nc-5c4c3C2=O)NC(=O)C(C)=CC=CC(C)C(O)C(C)C(O)C(C)C(O)C1C` (centres unmarked) [Compound 122] was tested. Which “MIC (μg/mL) S. aureus” value (S. aureus) did it give?
**A.** 0.002 µg/mL (≈ 0.0023 µM)

**Q.** What about the “MIC (μg/mL) S. pneumo.” value (S. pneumo.) of the same molecule?
**A.** 0.00025 µg/mL (≈ 0.000287 µM)

**Q.** What about the “MIC (μg/mL) E. faecalis” value (E. faecalis) of the same molecule?
**A.** 0.25 µg/mL (≈ 0.287 µM)

**Q.** What about the “MIC (μg/mL) H. flu” value (H. flu; H. flu) of the same molecule?
**A.** 0.12 µg/mL (≈ 0.138 µM)

**Q.** And the “MIC (μg/mL) E coli” value (E coli)?
**A.** 2 µg/mL (≈ 2.3 µM)

**Q.** With `COC1C=COC2(C)Oc3c(C)c(O)c4c(=O)c(c5oc6cc(N(C)CC(C)C)cc(O)c6nc-5c4c3C2=O)NC(=O)C(C)=CC=CC(C)C(O)C(C)C(O)C(C)C(O)C1C` (centres unmarked) [Compound 125] as the molecule, how does the “MIC (μg/mL) S. aureus” value (S. aureus) read?
**A.** 0.015 µg/mL (≈ 0.0178 µM)

**Q.** And the “MIC (μg/mL) S. pneumo.” value (S. pneumo.)?
**A.** 0.002 µg/mL (≈ 0.00237 µM)

**Q.** And the “MIC (μg/mL) E. faecalis” value (E. faecalis)?
**A.** 0.5 µg/mL (≈ 0.592 µM)

**Q.** What about the “MIC (μg/mL) H. flu” value (H. flu; H. flu) of the same molecule?
**A.** 0.5 µg/mL (≈ 0.592 µM)

**Q.** And the “MIC (μg/mL) E coli” value (E coli)?
**A.** >8 µg/mL

**Q.** For `COC1C=COC2(C)Oc3c(C)c(O)c4c(=O)c(c5oc6cc(N(C)C7CCN(C)CC7)cc(O)c6nc-5c4c3C2=O)NC(=O)C(C)=CC=CC(C)C(O)C(C)C(O)C(C)C(O)C1C` (centres unmarked) [Compound 126], which “MIC (μg/mL) S. aureus” value (S. aureus) is on record?
**A.** 0.004 µg/mL (≈ 0.00452 µM)

**Q.** And the “MIC (μg/mL) S. pneumo.” value (S. pneumo.)?
**A.** 0.00025 µg/mL (≈ 0.000282 µM)

**Q.** And the “MIC (μg/mL) E. faecalis” value (E. faecalis)?
**A.** 0.5 µg/mL (≈ 0.565 µM)

**Q.** What about the “MIC (μg/mL) H. flu” value (H. flu; H. flu) of the same molecule?
**A.** 0.25 µg/mL (≈ 0.282 µM)

**Q.** And the “MIC (μg/mL) E coli” value (E coli)?
**A.** 4 µg/mL (≈ 4.52 µM)

**Q.** What does the source list for `COC1C=COC2(C)Oc3c(C)c(O)c4c(=O)c(c5oc6cc(N(C)CCC#N)ccc6nc-5c4c3C2=O)NC(=O)C(C)=CC=CC(C)C(O)C(C)C(O)C(C)C(O)C1C` (centres unmarked) [Compound 127]?
**A.** MIC (μg/mL) S. aureus (S. aureus): 0.06 µg/mL (≈ 0.0727 µM); MIC (μg/mL) S. pneumo. (S. pneumo.): 0.008 µg/mL (≈ 0.0097 µM); MIC (μg/mL) E. faecalis (E. faecalis): 0.5 µg/mL (≈ 0.606 µM); MIC (μg/mL) H. flu (H. flu; H. flu): 0.12 µg/mL (≈ 0.145 µM); MIC (μg/mL) E coli (E coli): 8 µg/mL (≈ 9.7 µM)

**Q.** `COC1C=COC2(C)Oc3c(C)c(O)c4c(=O)c(c5oc6cc(N7CCOCC7)cc(O)c6nc-5c4c3C2=O)NC(=O)C(C)=CC=CC(C)C(O)C(C)C(O)C(C)C(O)C1C` (centres unmarked) [Compound 128] was tested. Which “MIC (μg/mL) S. aureus” value (S. aureus) did it give?
**A.** 0.004 µg/mL (≈ 0.00474 µM)

**Q.** What about the “MIC (μg/mL) S. pneumo.” value (S. pneumo.) of the same molecule?
**A.** 0.00025 µg/mL (≈ 0.000296 µM)

**Q.** And the “MIC (μg/mL) E. faecalis” value (E. faecalis)?
**A.** 0.06 µg/mL (≈ 0.0711 µM)

**Q.** What about the “MIC (μg/mL) H. flu” value (H. flu) of the same molecule?
**A.** 0.12 µg/mL (≈ 0.142 µM)

**Q.** What about the “MIC (μg/mL) E coli” value (E coli) of the same molecule?
**A.** >8 µg/mL

**Q.** `COC1C=COC2(C)Oc3c(C)c(O)c4c(=O)c(c5sc6cc(N7CCOCC7)ccc6nc-5c4c3C2=O)NC(=O)C(C)=CC=CC(C)C(O)C(C)C(O)C(C)C(O)C1C` (centres unmarked) [Compound 129] was tested. Which “MIC (μg/mL) S. aureus” value (S. aureus) did it give?
**A.** 0.015 µg/mL (≈ 0.0178 µM)

**Q.** What about the “MIC (μg/mL) S. pneumo.” value (S. pneumo.) of the same molecule?
**A.** 0.001 µg/mL (≈ 0.00118 µM)

**Q.** What about the “MIC (μg/mL) E. faecalis” value (E. faecalis) of the same molecule?
**A.** 0.5 µg/mL (≈ 0.592 µM)

**Q.** And the “MIC (μg/mL) H. flu” value (H. flu)?
**A.** 0.06 µg/mL (≈ 0.0711 µM)

**Q.** And the “MIC (μg/mL) E coli” value (E coli)?
**A.** 4 µg/mL (≈ 4.74 µM)
